Results on 28 compounds are retold here after patent US10172843B2, “Piperidine derivatives” (Hoffmann-La Roche Inc., priority 2014, dated 2019).

The target in this assay is human Cat S (Homo sapiens (Human), UniProt P25774). The experiment in a line: Cathepsin enzyme inhibition assay (fluorogenic peptide substrate). In kind it is biochemical. Particulars: human Cat S, enzyme 1 nM, substrate Z-Val-Val-Arg-AMC, pH 6.5; read-out: CatS IC50. Here is the method: Cathepsin Enzyme Inhibition Assay
Chain of human Cat S (P25774 115-331): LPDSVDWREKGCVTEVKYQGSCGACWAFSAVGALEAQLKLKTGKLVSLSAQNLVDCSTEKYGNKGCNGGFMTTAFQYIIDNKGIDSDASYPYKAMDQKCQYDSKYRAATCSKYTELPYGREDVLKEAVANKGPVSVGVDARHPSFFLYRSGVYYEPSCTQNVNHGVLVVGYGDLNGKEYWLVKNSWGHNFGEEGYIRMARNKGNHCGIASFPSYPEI
Enzyme activity is measured by observing the increase in fluorescence intensity caused by cleavage of a peptide substrate containing a fluorophore whose emission is quenched in the intact peptide.
Assay buffer: 100 mM potassium phosphate pH 6.5, EDTA-Na 5 mM, Triton X-100 0.001%, DTT 5 mM.
Enzymes (all at 1 nM): human and mouse Cathepsin S, Cat K, Cat B, Cat L.
Substrate ([…], except for Cat K which uses Z-Leu-Arg-AMC (both from Bachem).
Excitation 360 nm, Emission 465 nm.
Enzyme is added to the substance dilutions in 96-well microtitre plates and the reaction is started with substrate. […] IC50 are calculated by standard methods.
Inhibition of human Cat S, mouse Cat S, human Cat K, mouse Cat K, human Cat B, mouse Cat B, human Cat L and mouse Cat L have been measured separately.
`Cc1[nH]c(-c2ccc(C(F)(F)F)c(F)c2)nc1CN1CCC(n2c(=O)n(C)c3ccccc32)CC1` [Example 44, 1-{1-[2-(3-Fluoro-4-trifluoromethyl-phenyl)-5-methyl-1H-imidazol-4-ylmethyl]-piperidin-4-yl}-3-methyl-1,3-dihydro-benzoimidazol-2-one]: the concentration for half-maximal inhibition (IC50) came out at 385 nM.

Regarding `Cc1[nH]c(-c2ccc(C(F)(F)F)c(Cl)c2)nc1CN1CCC(N2Cc3ccc(F)cc3NC2=O)CC1` [Example 45, 3-{1-[2-(3-Chloro-4-trifluoromethyl-phenyl)-5-methyl-1H-imidazol-4-ylmethyl]-piperidin-4-yl}-7-fluoro-3,4-dihydro-1H-quinazolin-2-one], the 50% inhibitory concentration (IC50) stood at 110 nM. For the compound `Cc1[nH]c(-c2ccc(C(F)(F)F)c(Cl)c2)nc1CN1CCC(c2c[nH]c3ncccc23)CC1` [Example 46, 3-{1-[2-(3-Chloro-4-trifluoromethyl-phenyl)-5-methyl-1H-imidazol-4-ylmethyl]-piperidin-4-yl}-1H-pyrrolo[2,3-b]pyridine], the concentration for half-maximal inhibition (IC50) amounted to 305 nM. For the compound `Cc1[nH]c(-c2ccc(C(F)(F)F)c(F)c2)nc1CN1CCC(N2Cc3ccccc3NC2=O)CC1` [Example 47, 3-{1-[2-(3-Fluoro-4-trifluoromethyl-phenyl)-5-methyl-1H-imidazol-4-ylmethyl]-piperidin-4-yl}-3,4-dihydro-1H-quinazolin-2-one], the IC50 was found to be 145 nM. As for `Cc1[nH]c(-c2ccc(Cl)c(Cl)c2)nc1CN1CCC(N2Cc3ccc(F)cc3NC2=O)CC1` [Example 48, 3-{1-[2-(3,4-Dichloro-phenyl)-5-methyl-1H-imidazol-4-ylmethyl]-piperidin-4-yl}-7-fluoro-3,4-dihydro-1H-quinazolin-2-one], the figure is 450 nM; as for `Cc1[nH]c(-c2ccc(Cl)c(Cl)c2)nc1CN1CCC(c2c[nH]c3ncccc23)CC1` [Example 49, 3-{1-[2-(3,4-Dichloro-phenyl)-5-methyl-1H-imidazol-4-ylmethyl]-piperidin-4-yl}-1H-pyrrolo[2,3-b]pyridine], 1200 nM. The same measure for `Cc1[nH]c(-c2ccc(Cl)c(F)c2)nc1CN1CCC(N2Cc3ccccc3NC2=O)CC1` [Example 50, 3-{1-[2-(4-Chloro-3-fluoro-phenyl)-5-methyl-1H-imidazol-4-ylmethyl]-piperidin-4-yl}-3,4-dihydro-1H-quinazolin-2-one]: 605 nM.

In the case of `Cc1nn(-c2ccc(C(F)(F)F)cc2)cc1CN1CCC(N2Cc3ccccc3NC2=O)CC1` [Example 52, 3-{1-[3-Methyl-1-(4-trifluoromethyl-phenyl)-1H-pyrazol-4-ylmethyl]-piperidin-4-yl}-3,4-dihydro-1H-quinazolin-2-one], the IC50 was found to be 1380 nM. On to `Cc1[nH]c(-c2ccc(C(F)(F)F)cc2)nc1CN1CCC(N2Cc3ccccc3N(C)C2=O)CC1` [Example 53, 1-Methyl-3-{1-[5-methyl-2-(4-trifluoromethyl-phenyl)-1H-imidazol-4-ylmethyl]-piperidin-4-yl}-3,4-dihydro-1H-quinazolin-2-one], for which the half-maximal inhibitory concentration (IC50) stood at 145 nM. The same measure for `COCCN1C(=O)N(C2CCN(Cc3nc(-c4ccc(C(F)(F)F)cc4)[nH]c3C)CC2)Cc2ccccc21` [Example 54, 1-(2-Methoxy-ethyl)-3-{1-[5-methyl-2-(4-trifluoromethyl-phenyl)-1H-imidazol-4-ylmethyl]-piperidin-4-yl}-3,4-dihydro-1H-quinazolin-2-one]: 135 nM; for `COCCc1[nH]c(-c2ccc(C(F)(F)F)cc2)nc1CN1CCC(N2Cc3ccccc3NC2=O)CC1` [Example 55, 3-{1-[5-(2-Methoxy-ethyl)-2-(4-trifluoromethyl-phenyl)-1H-imidazol-4-ylmethyl]-piperidin-4-yl}-3,4-dihydro-1H-quinazolin-2-one]: 350 nM; for `O=C1Nc2ccccc2CN1C1CCN(Cc2nc(-c3ccc(C(F)(F)F)cc3)[nH]c2Cc2ccccc2)CC1` [Example 56, 3-{1-[5-Benzyl-2-(4-trifluoromethyl-phenyl)-1H-imidazol-4-ylmethyl]-piperidin-4-yl}-3,4-dihydro-1H-quinazolin-2-one]: 225 nM.

As for `Cc1[nH]c(-c2ccc(Cl)cc2Cl)nc1CN1CCC(N2Cc3ccccc3NC2=O)CC1` [Example 57, 3-{1-[2-(2,4-Dichloro-phenyl)-5-methyl-1H-imidazol-4-ylmethyl]-piperidin-4-yl}-3,4-dihydro-1H-quinazolin-2-one], the IC50 came to 995 nM. As for `Cc1[nH]c(-c2ccc(C(F)(F)F)cc2Cl)nc1CN1CCC(N2Cc3ccccc3NC2=O)CC1` [Example 59, 3-{1-[2-(2-Chloro-4-trifluoromethyl-phenyl)-5-methyl-1H-imidazol-4-ylmethyl]-piperidin-4-yl}-3,4-dihydro-1H-quinazolin-2-one], the figure is 285 nM. The same measure for `Cc1[nH]c(-c2ccc(C(F)(F)F)cc2Cl)nc1CN1CCC(n2c(=O)n(C)c3ccccc32)CC1` [Example 60, 1-{1-[2-(2-Chloro-4-trifluoromethyl-phenyl)-5-methyl-1H-imidazol-4-ylmethyl]-piperidin-4-yl}-3-methyl-1,3-dihydro-benzoimidazol-2-one]: 915 nM.

With `COCCc1[nH]c(-c2ccc(C(F)(F)F)cc2)nc1CN1CCC(c2c[nH]c3ccncc23)CC1` [Example 61, 3-{1-[5-(2-Methoxy-ethyl)-2-(4-trifluoromethyl-phenyl)-1H-imidazol-4-ylmethyl]-piperidin-4-yl}-1H-pyrrolo[3,2-c]pyridine], the IC50 came out at 1940 nM. As for `CCCc1[nH]c(-c2ccc(C(F)(F)F)cc2)nc1CN1CCC(N2Cc3ccccc3NC2=O)CC1` [Example 62, 3-{1-[5-Propyl-2-(4-trifluoromethyl-phenyl)-1H-imidazol-4-ylmethyl]-piperidin-4-yl}-3,4-dihydro-1H-quinazolin-2-one], the figure is 300 nM; as for `Cc1[nH]c(-c2ccc(C(F)(F)F)cc2)nc1CN1CCC(c2c[nH]c3ccncc23)CC1` [Example 63, 3-{1-[5-Methyl-2-(4-trifluoromethyl-phenyl)-1H-imidazol-4-ylmethyl]-piperidin-4-yl}-1H-pyrrolo[3,2-c]pyridine], 667 nM. With `CCCc1[nH]c(-c2ccc(C(F)(F)F)cc2)nc1CN1CCC(n2c(=O)n(C)c3ccccc32)CC1` [Example 64, 1-Methyl-3-{1-[5-propyl-2-(4-trifluoromethyl-phenyl)-1H-imidazol-4-ylmethyl]-piperidin-4-yl}-1,3-dihydro-benzoimidazol-2-one], the IC50 worked out at 928 nM. Turning to `Cn1nc(CN2CCC(N3Cc4ccccc4NC3=O)CC2)nc1-c1ccc(C(F)(F)F)cc1` [Example 66, 3-{1-[1-Methyl-5-(4-trifluoromethyl-phenyl)-1H-[1,2,4]triazol-3-ylmethyl]-piperidin-4-yl}-3,4-dihydro-1H-quinazolin-2-one], the 50% inhibitory concentration (IC50) was determined as 450 nM. `Cc1cn(-c2ccc(C(F)(F)F)cc2)nc1CN1CCC(N2Cc3ccccc3NC2=O)CC1` [Example 68, 3-{1-[4-Methyl-1-(4-trifluoromethyl-phenyl)-1H-pyrazol-3-ylmethyl]-piperidin-4-yl}-3,4-dihydro-1H-quinazolin-2-one]: the IC50 turned out to be 650 nM. Turning to `Cc1c(CN2CCC(n3c(=O)n(C)c4ccccc43)CC2)nc(-c2ccc(C(F)(F)F)cc2)n1C` [Example 70, 1-{1-[1,5-Dimethyl-2-(4-trifluoromethyl-phenyl)-1H-imidazol-4-ylmethyl]-piperidin-4-yl}-3-methyl-1,3-dihydro-benzoimidazol-2-one], the IC50 is 245 nM. As for `Cc1c(CN2CCC(N3Cc4ccccc4NC3=O)CC2)nc(-c2ccc(C(F)(F)F)cc2)n1C` [Example 71, 3-{1-[1,5-Dimethyl-2-(4-trifluoromethyl-phenyl)-1H-imidazol-4-ylmethyl]-piperidin-4-yl}-3,4-dihydro-1H-quinazolin-2-one], the IC50 worked out at 84 nM. Take `Cc1[nH]c(-c2ccc(S(=O)(=O)C(F)(F)F)cc2)nc1CN1CCC(N2Cc3ccccc3NC2=O)CC1` [Example 72, 3-{1-[5-Methyl-2-(4-trifluoromethanesulfonyl-phenyl)-1H-imidazol-4-ylmethyl]-piperidin-4-yl}-3,4-dihydro-1H-quinazolin-2-one]: the IC50 amounted to 24 nM. Regarding `Cc1[nH]c(-c2ccc(S(C)(=O)=O)cc2)nc1CN1CCC(N2Cc3ccccc3NC2=O)CC1` [Example 74, 3-{1-[2-(4-Methanesulfonyl-phenyl)-5-methyl-1H-imidazol-4-ylmethyl]-piperidin-4-yl}-3,4-dihydro-1H-quinazolin-2-one], the IC50 came to 94 nM. For `Cc1[nH]c(-c2ccc(S(=O)(=O)C(F)(F)F)cc2)nc1CN1CCC(n2c(=O)n(C)c3ccccc32)CC1` [Example 75, 1-Methyl-3-{1-[5-methyl-2-(4-trifluoromethanesulfonyl-phenyl)-1H-imidazol-4-ylmethyl]-piperidin-4-yl}-1,3-dihydro-benzoimidazol-2-one], the half-inhibitory concentration (IC50) stood at 60 nM. Regarding `COCCn1c(-c2ccc(C(F)(F)F)cc2)nc(CN2CCC(N3Cc4ccccc4NC3=O)CC2)c1C` [Example 76, 3-{1-[1-(2-Methoxy-ethyl)-5-methyl-2-(4-trifluoromethyl-phenyl)-1H-imidazol-4-ylmethyl]-piperidin-4-yl}-3,4-dihydro-1H-quinazolin-2-one], the concentration for half-maximal inhibition (IC50) was 317 nM. On to `Cc1[nH]c(-c2ccc(S(=O)(=O)C(F)(F)F)cc2)nc1CN1CCC(c2c[nH]c3ccncc23)CC1` [Example 77, 3-{1-[5-Methyl-2-(4-trifluoromethanesulfonyl-phenyl)-1H-imidazol-4-ylmethyl]-piperidin-4-yl}-1H-pyrrolo[3,2-c]pyridine], for which the IC50 was 155 nM.
